Patent publication US8853258B2, “C-linked hydroxamic acid derivatives useful as antibacterial agents” (Pfizer Inc., priority 2009, dated 2014)

How the values were obtained:
[1] = biological target: Pseudomonas aeruginosa LpxC enzyme (Pseudomonas aeruginosa (strain ATCC 15692 / DSM 22644 / CIP 104116 / JCM 14847 / LMG 12228 / 1C / PRS 101 / PAO1), UniProt P47205); assay: IC50 Assay, LpxC Enzyme from P. aeruginosa (PA LpxC Enzyme IC50); format: biochemical; details: P. aeruginosa LpxC enzyme; read-out: PA LpxC enzyeme IC50
Procedure: In order to assess the compounds biological activity, selected in-vitro assays were conducted on selected compounds. One of the assays measured the compounds ability to disrupt the synthesis of lipopolysaccharide, LPS, which is a component of the outer membrane of Gram-negative bacteria. Disruption of this synthesis is lethal to the bacteria. The assay determined the compound's ability to inhibit LpxC, which is the first enzyme in the biosynthetic pathway for LPS (measured as IC50). Additionally, MICs (minimal inhibitory concentrations) were determined for several bacteria. The specific protocols are described below:
A) IC50 Assay, LpxC Enzyme from P. aeruginosa (Labled as PA LpxC Enzyme IC50
At the end of 1 hour, 5 ul of 1N HCl was added to stop the enzyme reaction; the plates were centrifuged, and then processed with the BioTrove Rapidfire HTMS Mass Spectrometry System. A no-enzyme control was used in calculating the IC50 values from the percent conversion values.

[2] = tested on: Acinetobacter baumanii/haemolyticus: Multidrug-resistant clinical isolate (AB-3167); assay: MIC determination (CLSI), AB-3167; format: cell-based; details: Acinetobacter baumanii/haemolyticus multidrug-resistant clinical isolate AB-3167
Outline: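 Multidrug-resistant clinical isolate AB-3167 (A. baumannii/haemolyticus) tested for minimum inhibitory concentration following CLSI dilution susceptibility standards M7-A7 and M100-S18.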

[3] = tested on: Escherichia coli EC-1: VOGEL, mouse virulent; assay: MIC determination (CLSI), EC-1; format: cell-based; details: Escherichia coli EC-1 VOGEL, mouse virulent
Outline: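 E. coli Vogel, a mouse-virulent strain (EC-1), was tested. MICs were set by dilution susceptibility testing per CLSI standards M7-A7/M100-S18.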

[4] = tested on: Klebsiella pneumoniae: Ciprofloxacin-resistant isolate, ESBL, clinical isolate (KP-3700); assay: MIC determination (CLSI), KP-3700; format: cell-based
Outline: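 MIC measured by broth dilution according to CLSI M7-A7 and M100-S18 standards. Test organism was a ciprofloxacin-resistant, ESBL-expressing clinical isolate.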

[5] = tested on: Pseudomonas aeruginosa UI-18: Wild-type (PA-7); assay: MIC determination (CLSI), PA-7; format: cell-based; details: Pseudomonas aeruginosa UI-18 wild-type PA-7
Outline: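 MIC by dilution method per CLSI M7-A7 and M100-S18 guidelines. Strain: wild-type Pseudomonas aeruginosa UI-18.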

| SMILES | IC50 [1] | AB-3167 MIC [2] | EC-1 MIC [3] | KP-3700 MIC [4] | PA-7 MIC [5] |
| --- | --- | --- | --- | --- | --- |
| CC(CCc1ccc(-c2cccc(Cl)c2Cl)cc1)(C(=O)NO)S(C)(=O)=O (stereo not drawn) [Example 59] | 0.213 nM | 2 µg/mL | 0.5 µg/mL | 2 µg/mL | 2 µg/mL |
| CC(CCc1ccc(-c2cccc(F)c2F)cc1)(C(=O)NO)S(C)(=O)=O (stereo not drawn) [Example 62] | 0.185 nM | 16 µg/mL | 0.5 µg/mL | 16 µg/mL | 0.25 µg/mL |
| CC(C)Cc1ccc(-c2ccc(CCC(C)(C(=O)NO)S(C)(=O)=O)cc2)cc1 (stereo not drawn) [Example 63] | 0.356 nM | 8 µg/mL | 2 µg/mL | 4 µg/mL | 16 µg/mL |
| CC(CCc1ccc(-c2cccc(C#N)c2)cc1)(C(=O)NO)S(C)(=O)=O (stereo not drawn) [Example 64] | 0.739 nM | ≧64 mg/L | 4 µg/mL | 8 µg/mL | 2 µg/mL |
| CC(CCc1ccc(-c2ccsc2)cc1)(C(=O)NO)S(C)(=O)=O (stereo not drawn) [Example 77] | 0.991 nM | ≧64 mg/L | 8 µg/mL | 16 µg/mL | 2 µg/mL |
| Cc1cccc(-c2ccc(CCC(C)(C(=O)NO)S(C)(=O)=O)cc2)c1C (stereo not drawn) [Example 78] | 0.444 nM | ≧64 mg/L | 2 µg/mL | 16 µg/mL | 2 µg/mL |
| CC(CCc1ccc(-c2ccccc2Cl)cc1)(C(=O)NO)S(C)(=O)=O (stereo not drawn) [Example 81] | 0.448 nM | 32 µg/mL | 2 µg/mL | 8 µg/mL | 1 µg/mL |
| Cc1ccc(-c2ccc(CCC(C)(C(=O)NO)S(C)(=O)=O)cc2)cc1C (stereo not drawn) [Example 83] | 0.242 nM | 8 µg/mL | 1 µg/mL | 4 µg/mL | 2 µg/mL |
| CC(CCc1ccc(-c2cccc(Cl)c2)cc1)(C(=O)NO)S(C)(=O)=O (stereo not drawn) [Example 88] | 0.364 nM | 4 µg/mL | 1 µg/mL | 4 µg/mL | 1 µg/mL |
| Cc1cc(C#N)ccc1-c1ccc(CCC(C)(C(=O)NO)S(C)(=O)=O)cc1 (stereo not drawn) [Example 91] | 0.266 nM | 16 µg/mL | 2 µg/mL | 8 µg/mL | 2 µg/mL |
| Cc1cc(F)ccc1-c1ccc(CCC(C)(C(=O)NO)S(C)(=O)=O)cc1 (stereo not drawn) [Example 98] | 1.23 nM | 32 µg/mL | 4 µg/mL | 16 µg/mL | 2 µg/mL |
| CC(CCc1ccc(-c2ccc(F)c(Cl)c2)cc1)(C(=O)NO)S(C)(=O)=O (stereo not drawn) [Example 104] | 0.127 nM | 2 µg/mL | 0.5 µg/mL | 2 µg/mL | 1 µg/mL |
| C[C@@](CCc1ccc(-c2ccc(C#N)cc2)cc1)(C(=O)NO)S(C)(=O)=O [Example 107] | 0.134 nM | 16 µg/mL | 0.25 µg/mL | 1 µg/mL | 0.25 µg/mL |
| CC(=O)c1ccc(-c2ccc(CCC(C)(C(=O)NO)S(C)(=O)=O)cc2)cc1 (stereo not drawn) [Example 108] | 0.176 nM | 32 µg/mL | 0.5 µg/mL | 2 µg/mL | 0.5 µg/mL |
| Cc1cc(-c2ccc(CCC(C)(C(=O)NO)S(C)(=O)=O)cc2)ccc1C#N (stereo not drawn) [Example 109] | 0.144 nM | 32 µg/mL | 0.5 µg/mL | 2 µg/mL | 2 µg/mL |
